Source: PubChem BioAssay (NCI)
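Grown in 96-well plates, cells were treated for 48 hours with each compound at five concentrations. Insufficient inhibition: endpoint recorded as highest concentration tested. The concentration for 50% growth inhibition is given as GI50. TGI denotes the concentration required for complete inhibition of growth.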

Tests used:
Test in all cases: growth of human tumour cells (NCI), 48 h
UO-31 renal = system: UO-31 renal
HCC-2998 colon = system: HCC-2998 colon
MOLT-4 leukemia = system: MOLT-4 leukemia
CCRF-CEM leukemia = system: CCRF-CEM leukemia
EKVX NSCLC = system: EKVX NSCLC
RPMI-8226 leukemia = system: RPMI-8226 leukemia
SF-539 CNS = system: SF-539 CNS
SN12C renal = system: SN12C renal
SNB-75 CNS = system: SNB-75 CNS
NCI-H522 lung = system: NCI-H522 lung
SK-MEL-5 melanoma = system: SK-MEL-5 melanoma
KM12 colon = system: KM12 colon
MDA-MB-435 = system: MDA-MB-435
RXF 393 renal = system: RXF 393 renal
SNB-19 CNS = system: SNB-19 CNS
MDA-MB-231 breast = system: MDA-MB-231 breast
786-0 renal = system: 786-0 renal
PC-3 prostate = system: PC-3 prostate
DU-145 prostate = system: DU-145 prostate
OVCAR-3 ovarian = system: OVCAR-3 ovarian
NCI-H226 lung = system: NCI-H226 lung
SW-620 colon = system: SW-620 colon
OVCAR-5 ovarian = system: OVCAR-5 ovarian
HCT-116 colon = system: HCT-116 colon
HCT-15 colon = system: HCT-15 colon
MDA-N = system: MDA-N
UACC-257 melanoma = system: UACC-257 melanoma
K-562 leukemia = system: K-562 leukemia
OVCAR-8 ovarian = system: OVCAR-8 ovarian
COLO 205 colon = system: COLO 205 colon
U251 CNS = system: U251 CNS
NCI/ADR-RES ovarian = system: NCI/ADR-RES ovarian
LOX IMVI melanoma = system: LOX IMVI melanoma
SK-MEL-28 melanoma = system: SK-MEL-28 melanoma
HS 578T breast = system: HS 578T breast
NCI-H23 lung = system: NCI-H23 lung
MALME-3M melanoma = system: MALME-3M melanoma
MCF7 breast = system: MCF7 breast
HOP-62 NSCLC = system: HOP-62 NSCLC
SF-268 CNS = system: SF-268 CNS
IGROV1 ovarian = system: IGROV1 ovarian
ACHN renal = system: ACHN renal
M14 melanoma = system: M14 melanoma
SF-295 CNS = system: SF-295 CNS
HL-60(TB) leukemia = system: HL-60(TB) leukemia
SR leukemia = system: SR leukemia
TK-10 renal = system: TK-10 renal
NCI-H460 lung = system: NCI-H460 lung
HT29 colon = system: HT29 colon
A549 NSCLC = system: A549 NSCLC
CAKI-1 renal = system: CAKI-1 renal
SK-OV-3 ovarian = system: SK-OV-3 ovarian
A498 renal = system: A498 renal
BT-549 breast = system: BT-549 breast
T-47D breast = system: T-47D breast
UACC-62 melanoma = system: UACC-62 melanoma
SK-MEL-2 melanoma = system: SK-MEL-2 melanoma
HOP-92 NSCLC = system: HOP-92 NSCLC
OVCAR-4 ovarian = system: OVCAR-4 ovarian

Structure (SMILES): O=S(CCc1ccccc1)Nc1ccccc1 (configuration not stated)
- TGI (UO-31 renal): > 100 µM
- TGI (HCC-2998 colon): > 100 µM
- TGI (MOLT-4 leukemia): > 100 µM
- TGI (CCRF-CEM leukemia): > 100 µM
- TGI (EKVX NSCLC): > 100 µM
- TGI (RPMI-8226 leukemia): > 100 µM
- TGI (SF-539 CNS): > 100 µM
- TGI (SN12C renal): > 100 µM
- TGI (SNB-75 CNS): > 100 µM
- TGI (NCI-H522 lung): > 100 µM
- TGI (SK-MEL-5 melanoma): > 100 µM
- TGI (KM12 colon): > 100 µM
- TGI (MDA-MB-435): > 100 µM
- TGI (RXF 393 renal): > 100 µM
- TGI (SNB-19 CNS): > 100 µM
- TGI (MDA-MB-231 breast): > 100 µM
- TGI (786-0 renal): > 100 µM
- TGI (PC-3 prostate): > 100 µM
- TGI (DU-145 prostate): > 100 µM
- TGI (OVCAR-3 ovarian): > 100 µM
- TGI (NCI-H226 lung): > 100 µM
- TGI (SW-620 colon): > 100 µM
- TGI (OVCAR-5 ovarian): > 100 µM
- TGI (HCT-116 colon): > 100 µM
- TGI (HCT-15 colon): > 100 µM
- TGI (MDA-N): > 100 µM
- TGI (UACC-257 melanoma): > 100 µM
- TGI (K-562 leukemia): > 100 µM
- TGI (OVCAR-8 ovarian): > 100 µM
- TGI (COLO 205 colon): > 100 µM
- TGI (U251 CNS): > 100 µM
- TGI (NCI/ADR-RES ovarian): > 100 µM
- TGI (LOX IMVI melanoma): > 100 µM
- TGI (SK-MEL-28 melanoma): > 100 µM
- TGI (HS 578T breast): > 100 µM
- TGI (NCI-H23 lung): > 100 µM
- TGI (MALME-3M melanoma): > 100 µM
- TGI (MCF7 breast): > 100 µM
- TGI (HOP-62 NSCLC): > 100 µM
- TGI (SF-268 CNS): > 100 µM
- TGI (IGROV1 ovarian): > 100 µM
- TGI (ACHN renal): > 100 µM
- TGI (M14 melanoma): > 100 µM
- TGI (SF-295 CNS): > 100 µM
- TGI (HL-60(TB) leukemia): > 100 µM
- TGI (SR leukemia): > 100 µM
- TGI (TK-10 renal): > 100 µM
- TGI (NCI-H460 lung): > 100 µM
- TGI (HT29 colon): > 100 µM
- TGI (A549 NSCLC): > 100 µM
- TGI (CAKI-1 renal): > 100 µM

Structure (SMILES): COc1ccc(C(O)c2cc3c(N)c(C(=O)Nc4ccc(Br)cc4)sc3nc2C)cc1 (configuration not stated)
- GI50 (UO-31 renal): 4.22 µM
- TGI (UO-31 renal): 21.3 µM
- GI50 (HCC-2998 colon): 2.68 µM
- TGI (HCC-2998 colon): 10.4 µM
- GI50 (MOLT-4 leukemia): 3.27 µM
- TGI (MOLT-4 leukemia): > 100 µM
- GI50 (CCRF-CEM leukemia): 2.78 µM
- TGI (CCRF-CEM leukemia): > 100 µM
- GI50 (EKVX NSCLC): 3.29 µM
- TGI (EKVX NSCLC): 35 µM
- GI50 (RPMI-8226 leukemia): 2.32 µM
- TGI (RPMI-8226 leukemia): 19.7 µM
- GI50 (SF-539 CNS): 2.08 µM
- TGI (SF-539 CNS): 4.98 µM
- GI50 (SN12C renal): 3.66 µM
- TGI (SN12C renal): 17.3 µM
- GI50 (SK-OV-3 ovarian): 3.04 µM
- TGI (SK-OV-3 ovarian): 12.9 µM
- GI50 (SNB-75 CNS): 2.18 µM
- TGI (SNB-75 CNS): 6.22 µM
- GI50 (NCI-H522 lung): 2.62 µM
- TGI (NCI-H522 lung): 16 µM
- GI50 (A498 renal): 3.54 µM
- TGI (A498 renal): 19.8 µM
- GI50 (SK-MEL-5 melanoma): 3.16 µM
- TGI (SK-MEL-5 melanoma): 11.4 µM
- GI50 (KM12 colon): 2.45 µM
- TGI (KM12 colon): 11.1 µM
- GI50 (BT-549 breast): 3.02 µM
- TGI (BT-549 breast): 18.6 µM
- GI50 (MDA-MB-435): 0.492 µM
- TGI (MDA-MB-435): 2.76 µM
- GI50 (RXF 393 renal): 2.51 µM
- TGI (RXF 393 renal): 9.19 µM
- GI50 (SNB-19 CNS): 3.7 µM
- TGI (SNB-19 CNS): 60.3 µM
- GI50 (MDA-MB-231 breast): 3.18 µM
- TGI (MDA-MB-231 breast): 16.9 µM
- GI50 (786-0 renal): 7.58 µM
- TGI (786-0 renal): 29.3 µM
- GI50 (PC-3 prostate): 3.2 µM
- TGI (PC-3 prostate): 25 µM
- GI50 (DU-145 prostate): 2.52 µM
- TGI (DU-145 prostate): 6.18 µM
- GI50 (OVCAR-3 ovarian): 2.19 µM
- TGI (OVCAR-3 ovarian): 4.64 µM
- GI50 (NCI-H226 lung): 2.58 µM
- TGI (NCI-H226 lung): 9.16 µM
- GI50 (SW-620 colon): 3.37 µM
- TGI (SW-620 colon): 25.9 µM
- GI50 (OVCAR-5 ovarian): 3.58 µM
- TGI (OVCAR-5 ovarian): 31.9 µM
- GI50 (HCT-116 colon): 2.4 µM
- TGI (HCT-116 colon): 11.3 µM
- GI50 (HCT-15 colon): 1.57 µM
- TGI (HCT-15 colon): 13.4 µM
- GI50 (T-47D breast): 3.14 µM
- TGI (T-47D breast): 39.7 µM
- GI50 (UACC-257 melanoma): 3.51 µM
- TGI (UACC-257 melanoma): 34.6 µM
- GI50 (UACC-62 melanoma): 2.49 µM
- TGI (UACC-62 melanoma): 29.1 µM
- GI50 (K-562 leukemia): 1.13 µM
- TGI (K-562 leukemia): > 100 µM
- GI50 (OVCAR-8 ovarian): 3.15 µM
- TGI (OVCAR-8 ovarian): 12.9 µM
- GI50 (COLO 205 colon): 3.74 µM
- TGI (COLO 205 colon): 27 µM
- GI50 (U251 CNS): 2.5 µM
- TGI (U251 CNS): 11.2 µM
- GI50 (NCI/ADR-RES ovarian): 3.38 µM
- TGI (NCI/ADR-RES ovarian): 19 µM
- GI50 (LOX IMVI melanoma): 2.75 µM
- TGI (LOX IMVI melanoma): 11.6 µM
- GI50 (SK-MEL-28 melanoma): 5.16 µM
- TGI (SK-MEL-28 melanoma): > 100 µM
- GI50 (SK-MEL-2 melanoma): 7.69 µM
- TGI (SK-MEL-2 melanoma): 47.1 µM
- GI50 (HS 578T breast): 2.19 µM
- TGI (HS 578T breast): 5.63 µM
- GI50 (HOP-92 NSCLC): 2.74 µM
- TGI (HOP-92 NSCLC): 23 µM
- GI50 (OVCAR-4 ovarian): 2.01 µM
- TGI (OVCAR-4 ovarian): 6.57 µM
- GI50 (NCI-H23 lung): 6.11 µM
- TGI (NCI-H23 lung): 82.2 µM
- GI50 (MALME-3M melanoma): 2.43 µM
- TGI (MALME-3M melanoma): 13 µM
- GI50 (MCF7 breast): 1.63 µM
- TGI (MCF7 breast): 15.2 µM
- GI50 (HOP-62 NSCLC): 3.02 µM
- TGI (HOP-62 NSCLC): 11 µM
- GI50 (SF-268 CNS): 3.74 µM
- TGI (SF-268 CNS): 18.5 µM
- GI50 (IGROV1 ovarian): 3.37 µM
- TGI (IGROV1 ovarian): 26 µM
- GI50 (ACHN renal): 3.93 µM
- TGI (ACHN renal): 16.4 µM
- GI50 (M14 melanoma): 2.35 µM
- TGI (M14 melanoma): 20 µM
- GI50 (SF-295 CNS): 2.55 µM
- TGI (SF-295 CNS): 8.81 µM
- GI50 (HL-60(TB) leukemia): 2.41 µM
- TGI (HL-60(TB) leukemia): 13.5 µM
- GI50 (SR leukemia): 0.594 µM
- TGI (SR leukemia): > 100 µM
- GI50 (TK-10 renal): 8.18 µM
- TGI (TK-10 renal): 34.3 µM
- GI50 (NCI-H460 lung): 2.16 µM
- TGI (NCI-H460 lung): 4.66 µM
- GI50 (HT29 colon): 2.4 µM
- TGI (HT29 colon): 6.51 µM
- GI50 (A549 NSCLC): 2.64 µM
- TGI (A549 NSCLC): 8.01 µM
- GI50 (CAKI-1 renal): 3.5 µM
- TGI (CAKI-1 renal): 14.2 µM
